Measured values reported in ChEMBL document CHEMBL3232825 (J Med Chem, 2014).
≈ marks a conversion by molar mass, not a printed value.

Assays:
[1] = target: Endoplasmin (Homo sapiens, UniProt P14625)
[2] = target: T1, Heat shock protein HSP 90-beta (Homo sapiens, UniProt P08238)
[3] = target: T1, Heat shock protein HSP 90-beta; remark: listed apart in the source
[4] = target: T2, Heat shock protein 75 kDa, mitochondrial (Homo sapiens, UniProt Q12931)
T2 sequence (Q12931 whole entry): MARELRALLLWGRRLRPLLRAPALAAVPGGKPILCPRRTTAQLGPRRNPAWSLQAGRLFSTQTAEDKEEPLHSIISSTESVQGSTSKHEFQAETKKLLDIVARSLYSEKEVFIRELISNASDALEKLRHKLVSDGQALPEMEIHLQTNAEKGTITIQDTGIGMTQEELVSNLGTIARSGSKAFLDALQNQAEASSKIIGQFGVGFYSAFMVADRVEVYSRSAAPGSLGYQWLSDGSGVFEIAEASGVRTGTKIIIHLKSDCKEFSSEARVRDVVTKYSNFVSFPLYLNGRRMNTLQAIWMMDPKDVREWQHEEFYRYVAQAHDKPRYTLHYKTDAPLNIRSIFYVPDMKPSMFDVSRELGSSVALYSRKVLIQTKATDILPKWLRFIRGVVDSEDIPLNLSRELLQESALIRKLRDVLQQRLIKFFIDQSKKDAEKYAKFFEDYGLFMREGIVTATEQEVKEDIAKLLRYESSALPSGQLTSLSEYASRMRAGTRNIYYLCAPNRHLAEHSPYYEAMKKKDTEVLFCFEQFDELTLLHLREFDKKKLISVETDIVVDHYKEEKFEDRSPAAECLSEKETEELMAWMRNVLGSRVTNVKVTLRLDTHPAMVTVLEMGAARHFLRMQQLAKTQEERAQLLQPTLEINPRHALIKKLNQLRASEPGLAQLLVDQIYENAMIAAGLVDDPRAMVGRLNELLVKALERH

[5] = Aqueous solubility of the compound at pH 7.4; assay type: physicochemical
[6] = in vivo; conditions: Sprague-Dawley, rat, sc, 10 mg/kg
[7] = in vivo; conditions: Sprague-Dawley, rat, plasma, iv, 1 mg/kg
[8] = in vivo; conditions: Sprague-Dawley, rat, iv, 1 mg/kg
[9] = in vivo; conditions: Sprague-Dawley, rat, brain and plasma, sc, 10 mg/kg
[10] = in vivo; conditions: Sprague-Dawley, rat, iv, 1 mg/kg; remark: listed apart in the source
[11] = in vivo; conditions: Sprague-Dawley, rat, plasma, sc, 10 mg/kg
[12] = in vivo; conditions: Sprague-Dawley, rat, iv, 1 mg/kg; remark: listed apart in the source

Sequence of Endoplasmin (P14625 whole entry): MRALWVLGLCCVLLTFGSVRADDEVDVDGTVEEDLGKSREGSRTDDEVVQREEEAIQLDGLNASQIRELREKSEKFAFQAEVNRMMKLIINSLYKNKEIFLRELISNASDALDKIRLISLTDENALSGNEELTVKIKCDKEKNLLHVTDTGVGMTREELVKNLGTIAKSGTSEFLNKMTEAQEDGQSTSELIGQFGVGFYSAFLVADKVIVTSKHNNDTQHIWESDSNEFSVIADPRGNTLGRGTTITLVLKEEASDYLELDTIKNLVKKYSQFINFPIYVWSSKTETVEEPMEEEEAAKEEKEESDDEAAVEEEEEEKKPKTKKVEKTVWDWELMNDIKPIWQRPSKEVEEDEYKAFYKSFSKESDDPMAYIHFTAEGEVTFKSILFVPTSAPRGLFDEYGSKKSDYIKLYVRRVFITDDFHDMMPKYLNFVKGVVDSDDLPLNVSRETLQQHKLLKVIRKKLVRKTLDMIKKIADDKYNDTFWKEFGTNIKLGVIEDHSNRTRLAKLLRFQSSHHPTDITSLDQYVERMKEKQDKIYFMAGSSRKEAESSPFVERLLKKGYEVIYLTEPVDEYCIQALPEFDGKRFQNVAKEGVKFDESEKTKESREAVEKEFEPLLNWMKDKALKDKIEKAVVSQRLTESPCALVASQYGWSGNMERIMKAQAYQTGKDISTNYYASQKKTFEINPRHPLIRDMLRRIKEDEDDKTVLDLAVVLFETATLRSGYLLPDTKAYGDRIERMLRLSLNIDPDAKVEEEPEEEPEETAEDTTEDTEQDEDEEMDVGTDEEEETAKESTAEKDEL
T1 sequence (P08238 whole entry): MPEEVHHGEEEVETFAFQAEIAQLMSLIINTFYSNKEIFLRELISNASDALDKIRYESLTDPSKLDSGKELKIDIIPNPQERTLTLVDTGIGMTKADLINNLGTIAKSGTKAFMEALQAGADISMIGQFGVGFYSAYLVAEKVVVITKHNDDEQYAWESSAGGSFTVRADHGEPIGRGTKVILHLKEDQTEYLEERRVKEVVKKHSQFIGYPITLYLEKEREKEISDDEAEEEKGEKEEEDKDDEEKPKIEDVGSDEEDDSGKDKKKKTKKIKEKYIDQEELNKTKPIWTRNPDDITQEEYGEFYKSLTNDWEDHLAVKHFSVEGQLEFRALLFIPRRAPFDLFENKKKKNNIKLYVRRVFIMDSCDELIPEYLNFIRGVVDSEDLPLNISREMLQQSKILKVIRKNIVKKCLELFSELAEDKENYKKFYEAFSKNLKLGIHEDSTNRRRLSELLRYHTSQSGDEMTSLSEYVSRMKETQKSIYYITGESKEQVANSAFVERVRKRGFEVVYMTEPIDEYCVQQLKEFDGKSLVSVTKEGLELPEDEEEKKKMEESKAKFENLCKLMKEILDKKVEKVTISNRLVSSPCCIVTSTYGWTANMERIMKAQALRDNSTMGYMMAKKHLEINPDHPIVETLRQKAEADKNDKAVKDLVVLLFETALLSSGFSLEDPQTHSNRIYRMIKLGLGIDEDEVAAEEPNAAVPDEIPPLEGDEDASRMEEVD

SMILES | Ki [1] [µM] | Ki [2] [nM] | IC50 [3] [nM] | Ki [4] [µM] | also measured
Cc1cn(-c2cc3c(c(C4CCCCC4)c2)C(=O)NCC3)c2c1C(=O)CC(C)(C)C2 | > 10 | 5 | 36 | > 10 | –
COc1ccc(-c2cc(-n3cc(C)c4c3CC(C)(C)CC4=O)cc3c2C(=O)NCC3)cc1 | > 10 | 40 | 280 | > 10 | –
CN1CCc2c3c(n(-c4ccc(C(N)=O)c(N[C@H]5CCOC5)c4)c2C1)CC(C)(C)CC3=O | – | – | – | – | solubility [5]: > 200 µM
CC1(C)CC(=O)c2c(n(-c3ccc(C(N)=O)cc3)c3cnccc23)C1 | > 10 | > 10000 | – | > 10 | –
CN1CCc2c3c(n(-c4ccc5c(c4)CNC5=O)c2C1)CC(C)(C)CC3=O | > 10 | > 10000 | > 10000 | > 10 | –
Cc1cn(-c2cc3c(c(C4CCOCC4)c2)C(=O)NCC3)c2c1C(=O)CC(C)(C)C2 | 2.4 | 3 | 19 | > 10 | –
CC1(C)CC(=O)c2c(n(-c3ccc(C(N)=O)cc3)c3cccnc23)C1 | > 10 | > 10000 | – | > 10 | –
Cc1cn(-c2cc3c(c(C4CCC4)c2)C(=O)NCC3)c2c1C(=O)CC(C)(C)C2 | > 10 | 39 | 195 | > 10 | –
Cc1cn(-c2cc3c(c(C(C)(C)C)c2)C(=O)NCC3)c2c1C(=O)CC(C)(C)C2 | > 10 | 140 | 1700 | > 10 | –
CN1CCc2c3c(n(-c4ccc5c(c4)CCCNC5=O)c2C1)CC(C)(C)CC3=O | > 10 | > 10000 | > 10000 | > 10 | –
CC1(C)CC(=O)c2c3c(n(-c4ccc(C(N)=O)c(N[C@H]5CCOC5)c4)c2C1)CCCC3 | – | 40 | 530 | – | solubility [5]: 27 µM (≈ 11.4 µg/mL)

Second part, led by results:

Ki [1] [µM] | Ki [2] [nM] | IC50 [3] [nM] | Ki [4] [µM] | SMILES | also measured
> 10 | 10 | 80 | > 10 | Cc1cn(-c2cc3c(c(-c4ccc(F)cc4)c2)C(=O)NCC3)c2c1C(=O)CC(C)(C)C2 | –
> 10 | – | – | > 10 | Cc1cn(-c2cc3c(c(CC(C)C)c2)C(=O)NCC3)c2c1C(=O)CC(C)(C)C2 | half-life [6]: 696 min; AUC [7]: 640 ng·h/mL; clearance [8]: 25.7 mL/min/kg; Kp at 2 h [9]: 0.5; Vd [10]: 4.08 L/kg; AUC [11]: 3580 ng·h/mL; half-life [12]: 132 min
> 10 | 15 | 230 | > 10 | Cc1cn(-c2cc3c(c(-c4ccccc4)c2)C(=O)NCC3)c2c1C(=O)CC(C)(C)C2 | –
> 10 | 56 | 1000 | > 10 | CCCCc1cc(-n2cc(C)c3c2CC(C)(C)CC3=O)cc2c1C(=O)NCC2 | –
> 10 | 20 | 81 | > 10 | Cc1cn(-c2cc3c(c(-c4cccc(F)c4)c2)C(=O)NCC3)c2c1C(=O)CC(C)(C)C2 | –
> 10 | 120 | 480 | > 10 | Cc1cn(-c2cc3c(c(Cc4ccccc4)c2)C(=O)NCC3)c2c1C(=O)CC(C)(C)C2 | –
